Read-outs that look alike come from different tables or passages of the source.
What was measured:
[1] = In vivo pharmacokinetic study, curcumin plasma concentration by UPLC-MS/MS; design: species or system female Wistar rats; settings: rats, single oral dose 100 mg/kg BW, mean ± SE (n = 5)
Method: The pharmacokinetic evaluation was carried out after obtaining approval from the Ethics Committee of the Faculty of Medicine Universitas Indonesia (approval number: 1188/ UN.2 F1/ETIK/2018). A pharmacokinetic study was carried out in female Wistar rats to determine the pharmacokinetic profile of curcumin particles and nanoparticles. Rats weighing 150–200 g were obtained and maintained at the Biomedical Research Center and Basic Health Technology Laboratory, Balitbangkes, Republic of Indonesia, Ministry of Health. The rats were placed in a room with constant temperature and humidity, adequate lighting, pellet food, and water ad libitum.
For each analysis, blood samples were pooled from six rats. […] Blood samples were taken from the rats tail vein using EDTA tubes. Blood samples were centrifuged at 3000 rpm for 15 minutes to obtain plasma, then stored at -80°C until analysis.
The LC-MS/MS system used was UPLC Waters and tandem mass spectrometry with a positive electrospray ionization source. Separation of analyte in the sample was carried using a liquid chromatography system with Acquity UPLC® BEH C18 column and mobile phase gradient in the form of 0.1% and acetonitrile formic acid with a ratio of 72:28 with analyte rate of 0.3 mL/min and injection volume of 3 µL. […] The calibration curve of a standard solution was made with the final level of the analytes at 1, 2.5, 5, 10, 25, and 50 ng/mL.[24]
The pharmacokinetic profiles were represented as mean and standard error (SE) from each group and were estimated through non-compartmental analysis. […] The area under the curve (AUC) from the beginning to the endpoint ( AUC^0→3 ) was calculated using the trapezoidal method. AUC^0→∞ is the amount of the AUC per time interval from 0 to the time of infinity, calculated by AUC^0→3 […]; Cpn is the plasma concentration at the last sampling time. […] The t1/2 was counted using the equation t1/2 = ln 2/Ke, and the CL was calculated by dividing the dose by AUC^0→∞ .[25]

[2] = Particle size and distribution (Delsa Nanoparticle Size Analyzer); format: physicochemical
Text: The examination of particle size and distribution of particles from nanoparticles was done using the Delsa™ Nanoparticle Size Analyzer (Beckman Coulter, Brea, USA).

[3] = cited from earlier work
[4] = cited from earlier work; remark: listed apart in the source
[5] = 340 mg/kg given orally ref Timothy et al; cited from earlier work

Cmax ([1]; female, Wistar, rat): 1.51 ± 0.401 ng/mL
Tmax ([1]; female, Wistar, rat): 44 min
AUC(0-t) ([1]; female, Wistar, rat, read-out: AUC0-3): 1.5 ± 0.401 ng·h/mL
AUC ([1]; female, Wistar, rat, read-out: AUC0-~): 1.71 ± 0.535 ng·h/mL
k el ([1]; female, Wistar, rat, read-out: Ke (converted)): 0.000327 s⁻¹
half-life ([1]; female, Wistar, rat, read-out: t1/2 elimination (converted)): 51.5 ± 12.8 min
Ka ([1]; residual method): 1.958 ± 0.468 h⁻¹
mean particle size [2]: 16103.4 nm
SMILES: COc1cc(/C=C/C(=O)CC(=O)/C=C/c2ccc(O)c(OC)c2)ccc1O [Curcumin particles, Curcumin]
partition coefficient [3]: 2.3–2.6
bioavailability [4]: approximately 1%
Tmax [5]: 30 min

From publication PMC7961214 (Advanced Pharmaceutical Bulletin, 2020)
